For series [1], the system named is HIV-1 (IIIB) in MT-4 cells. Description: MT-4 HIV assay. The series is classed as cell-based. Particulars: HIV-1 (IIIB), MT-4 cells, 5 days, Cell Titer Glo, read-out: EC50. In outline: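 Antiviral activity was read by Cell Titer Glo after a 5-day, 37 °C culture of MT-4 cells pre-infected with a 1:250 dilution of HIV-1 (IIIB). Compounds were tested as threefold dilution series in complete RPMI. Controls were no drug, mock infection and 5 uM AZT.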
For orientation: Cellular ATP, detected with luciferase, serves as a proxy for viable cell number.

For series [2] the following is noted: microsomes. The procedure:
Liver Microsomal Stability Protocol
Test compounds and one control compound (verapamil) were tested in 3 different species in duplicate sets.
Test compound concentration: 1 uM; Protein concentration: 0.5 mg/mL (for dog, rat, and human liver microsomes); Cofactor: NADPH-Regenerating system (NRS) solution; Time-points: 2, 12, 25, 45, and 65 minutes.
Reaction composition (in each incubation well) contains:
After plates were vortexed, they were centrifuged for 30 minutes to remove proteins. About 100 μL supernatant was removed to a new plate and diluted with 150 μL water. About 20 μL of the mixture was injected into LC/MS/MS system to monitor the compound's response. In vitro measured t1/2 was used to calculate Clint values.

Setting [3] is: Human immunodeficiency virus 1, MT4, 120 h.

Like-named read-outs stand apart in the source and are kept apart here.

By EC50 is commonly meant the concentration needed to bring the measured effect to its halfway point.

On to `COC(=O)N[C@H](C(=O)NN(Cc1c(F)cc(-c2ccn(CC(F)F)n2)cc1F)C[C@H](O)[C@H](Cc1ccc(C#Cc2ccc(N3CC4CCC(C3)N4C3COC3)nc2)cc1)NC(=O)[C@@H](NC(=O)OC)C(C)(C)C(F)(F)F)C(C)(C)C` [Example 6, methyl ((5S,8S,9S,14S)-11-(4-(1-(2,2-difluoroethyl)-1H-pyrazol-3-yl)-2,6-difluorobenzyl)-9-hydroxy-15,15-dimethyl-8-(4-((6-(8-(oxetan-3-yl)-3,8-diazabicyclo[3.2.1]octan-3-yl)pyridin-3-yl)ethynyl)benzyl)-3,6,13-trioxo-5-(1,1,1-trifluoro-2-methylpropan-2-yl)-2-oxa-4,7,11,12-tetraazahexadecan-14-yl)carbamate], for which the concentration giving a half-maximal response (EC50) in series [1] (setting [3]) came to 3.56 nM. In series [2], the “Human Pred Cl.” value is below 0.11 L/H/kg and the “Rat. Pred. Cl.” value was 0.22 L/H/kg.

`COC(=O)N[C@H](C(=O)NN(Cc1c(F)cc(-c2ccn(CC(F)F)n2)cc1F)C[C@H](O)[C@H](Cc1ccc(C#Cc2cnc(N3CC4CCC(C3)N4C3COC3)nc2)cc1)NC(=O)[C@@H](NC(=O)OC)C(C)(C)C(F)(F)F)C(C)(C)C` [Example 7, methyl ((5S,8S,9S,14S)-11-(4-(1-(2,2-difluoroethyl)-1H-pyrazol-3-yl)-2,6-difluorobenzyl)-9-hydroxy-15,15-dimethyl-8-(4-((2-(8-(oxetan-3-yl)-3,8-diazabicyclo[3.2.1]octan-3-yl)pyrimidin-5-yl)ethynyl)benzyl)-3,6,13-trioxo-5-(1,1,1-trifluoro-2-methylpropan-2-yl)-2-oxa-4,7,11,12-tetraazahexadecan-14-yl)carbamate]: in series [1] (setting [3]), the EC50 is 3.61 nM. In addition, in series [2], the “Human Pred Cl.” value is given as below 0.11 L/H/kg and the “Rat. Pred. Cl.” value is 0.21 L/H/kg.

As to `COC(=O)N[C@H](C(=O)N[C@@H](Cc1ccc(C#Cc2ccc(N3CC4CCC(C3)N4C3COC3)nc2)cc1)[C@@H](O)CN(Cc1c(F)cc(-c2nnc(C)o2)cc1F)NC(=O)[C@@H](NC(=O)OC)C(C)(C)C(F)(F)F)C(C)(C)C(F)(F)F` [Example 11, Methyl ((5S,8S,9S,14S)-11-(2,6-difluoro-4-(5-methyl-1,3,4-oxadiazol-2-yl)benzyl)-16,16,16-trifluoro-9-hydroxy-15,15-dimethyl-8-(4-((6-(8-(oxetan-3-yl)-3,8-diazabicyclo[3.2.1]octan-3-yl)pyridin-3-yl)ethynyl)benzyl)-3,6,13-trioxo-5-(1,1,1-trifluoro-2-methylpropan-2-yl)-2-oxa-4,7,11,12-tetraazahexadecan-14-yl)carbamate], the concentration for a half-maximal effect (EC50) in series [1] (setting [3]) turned out to be 3.72 nM. In series [2], the “Human Pred Cl.” value was determined as 0.18 L/H/kg and the “Rat. Pred. Cl.” value worked out at 0.18 L/H/kg.

Turning to `COC(=O)N[C@H](C(=O)N[C@@H](Cc1ccc(C#Cc2ccc(N3CC4CCC(C3)N4C3COC3)nc2)cc1)[C@@H](O)CN(Cc1c(F)cc(-c2ccn([C@H]3CCOC3)n2)cc1F)NC(=O)[C@@H](NC(=O)OC)C(C)(C)C(F)(F)F)C(C)(C)C(F)(F)F` [Example 14, Methyl ((5S,8S,9S,14S)-11-(2,6-difluoro-4-(1-((S)-tetrahydrofuran-3-yl)-1H-pyrazol-3-yl)benzyl)-16,16,16-trifluoro-9-hydroxy-15,15-dimethyl-8-(4-((6-(8-(oxetan-3-yl)-3,8-diazabicyclo[3.2.1]octan-3-yl)pyridin-3-yl)ethynyl)benzyl)-3,6,13-trioxo-5-(1,1,1-trifluoro-2-methylpropan-2-yl)-2-oxa-4,7,11,12-tetraazahexadecan-14-yl)carbamate], the EC50 in series [1] (setting [3]) came out at 4.39 nM. In series [2], the “Human Pred Cl.” value is listed as 0.66 L/H/kg and the “Rat. Pred. Cl.” value was 1.13 L/H/kg.

As to `COC(=O)N[C@H](C(=O)N[C@@H](Cc1ccc(C#Cc2ccc(N3CC4CCC(C3)N4C3COC3)nc2)cc1)[C@@H](O)CN(Cc1ccc(-c2ccc(F)cn2)cc1F)NC(=O)[C@@H](NC(=O)OC)C(C)(C)C(F)(F)F)C(C)(C)C(F)(F)F` [Example 235, methyl ((5S,8S,9S,14S)-16,16,16-trifluoro-11-(2-fluoro-4-(5-fluoropyridin-2-yl)benzyl)-9-hydroxy-15,15-dimethyl-8-(4-((6-(8-(oxetan-3-yl)-3,8-diazabicyclo[3.2.1]octan-3-yl)pyridin-3-yl)ethynyl)benzyl)-3,6,13-trioxo-5-(1,1,1-trifluoro-2-methylpropan-2-yl)-2-oxa-4,7,11,12-tetraazahexadecan-14-yl)carbamate], the EC50 in series [1] (setting [3]) was found to be 16.7 nM.

With `COC(=O)N[C@H](C(=O)N[C@@H](Cc1ccc(C#Cc2ccc(N3CC4CCC(C3)N4CC(F)F)nc2)cc1)[C@@H](O)CN(Cc1c(F)cc(-c2ccccn2)cc1Cl)NC(=O)[C@@H](NC(=O)OC)C(C)(C)CF)C(C)(C)CF` [Example 238, methyl ((5S,8S,9S,14S)-11-(2-chloro-6-fluoro-4-(pyridin-2-yl)benzyl)-8-(4-((6-(8-(2,2-difluoroethyl)-3,8-diazabicyclo[3.2.1]octan-3-yl)pyridin-3-yl)ethynyl)benzyl)-16-fluoro-5-(1-fluoro-2-methylpropan-2-yl)-9-hydroxy-15,15-dimethyl-3,6,13-trioxo-2-oxa-4,7,11,12-tetraazahexadecan-14-yl)carbamate], the EC50 in series [1] (setting [3]) was 12.3 nM.

Regarding `COC(=O)N[C@H](C(=O)N[C@@H](Cc1ccc(C#Cc2ccc(N3CC4CCC(C3)N4C(C)C)nc2)cc1)[C@@H](O)CN(Cc1c(F)cc(-c2ccccn2)cc1F)NC(=O)[C@@H](NC(=O)OC)C(C)(C)C(F)(F)F)C(C)(C)C(F)(F)F` [Example 240, methyl ((5S,8S,9S,14S)-11-(2,6-difluoro-4-(pyridin-2-yl)benzyl)-16,16,16-trifluoro-9-hydroxy-8-(4-((6-(8-isopropyl-3,8-diazabicyclo[3.2.1]octan-3-yl)pyridin-3-yl)ethynyl)benzyl)-15,15-dimethyl-3,6,13-trioxo-5-(1,1,1-trifluoro-2-methylpropan-2-yl)-2-oxa-4,7,11,12-tetraazahexadecan-14-yl)carbamate], the 50% effective concentration (EC50) in series [1] (setting [3]) is 5.62 nM.

Take `CCN1C2CCC1CN(c1ccc(C#Cc3ccc(C[C@H](NC(=O)[C@@H](NC(=O)OC)C(C)(C)C(F)(F)F)[C@@H](O)CN(Cc4c(F)cc(-c5ccccn5)cc4F)NC(=O)[C@@H](NC(=O)OC)C(C)(C)C(F)(F)F)cc3)cn1)C2` [Example 241, methyl ((5S,8S,9S,14S)-11-(2,6-difluoro-4-(pyridin-2-yl)benzyl)-8-(4-((6-(8-ethyl-3,8-diazabicyclo[3.2.1]octan-3-yl)pyridin-3-yl)ethynyl)benzyl)-16,16,16-trifluoro-9-hydroxy-15,15-dimethyl-3,6,13-trioxo-5-(1,1,1-trifluoro-2-methylpropan-2-yl)-2-oxa-4,7,11,12-tetraazahexadecan-14-yl)carbamate]: the EC50 in series [1] (setting [3]) was determined as 6.57 nM.

For `COC(=O)N[C@H](C(=O)N[C@@H](Cc1ccc(C#Cc2ccc(N3CC4CCC(C3)N4C)nc2)cc1)[C@@H](O)CN(Cc1c(F)cc(-c2ccccn2)cc1F)NC(=O)[C@@H](NC(=O)OC)C(C)(C)C(F)(F)F)C(C)(C)C(F)(F)F` [Example 242, methyl ((5S,8S,9S,14S)-11-(2,6-difluoro-4-(pyridin-2-yl)benzyl)-16,16,16-trifluoro-9-hydroxy-15,15-dimethyl-8-(4-((6-(8-methyl-3,8-diazabicyclo[3.2.1]octan-3-yl)pyridin-3-yl)ethynyl)benzyl)-3,6,13-trioxo-5-(1,1,1-trifluoro-2-methylpropan-2-yl)-2-oxa-4,7,11,12-tetraazahexadecan-14-yl)carbamate], the EC50 in series [1] (setting [3]) was 3.45 nM.

As to `COC(=O)N[C@H](C(=O)NN(Cc1ccc(-c2cnn(C(F)F)c2)cc1)C[C@H](O)[C@H](Cc1ccc(C#Cc2ccc(N3CC4CCC(C3)N4C3COC3)nc2)cc1)NC(=O)[C@@H](NC(=O)OC)C(C)(C)C(F)(F)F)C(C)(C)C` [Example 243, methyl ((5S,8S,9S,14S)-11-(4-(1-(difluoromethyl)-1H-pyrazol-4-yl)benzyl)-9-hydroxy-15,15-dimethyl-8-(4-((6-(8-(oxetan-3-yl)-3,8-diazabicyclo[3.2.1]octan-3-yl)pyridin-3-yl)ethynyl)benzyl)-3,6,13-trioxo-5-(1,1,1-trifluoro-2-methylpropan-2-yl)-2-oxa-4,7,11,12-tetraazahexadecan-14-yl)carbamat], the EC50 in series [1] (setting [3]) is 5.32 nM.

With `COC(=O)N[C@H](C(=O)N[C@@H](Cc1ccc(C#Cc2ccc(N3CC4CCC(C3)N4C3COC3)nc2)cc1)[C@@H](O)CN(Cc1ccc(-c2ccccn2)cc1F)NC(=O)[C@@H](NC(=O)OC)C(C)(C)C(F)(F)F)C(C)(C)C(F)(F)F` [Example 245, Methyl ((5S,8S,9S,14S)-16,16,16-trifluoro-11-(2-fluoro-4-(pyridin-2-yl)benzyl)-9-hydroxy-15,15-dimethyl-8-(4-((6-(8-(oxetan-3-yl)-3,8-diazabicyclo[3.2.1]octan-3-yl)pyridin-3-yl)ethynyl)benzyl)-3,6,13-trioxo-5-(1,1,1-trifluoro-2-methylpropan-2-yl)-2-oxa-4,7,11,12-tetraazahexadecan-14-yl)carbamate], the EC50 in series [1] (setting [3]) turned out to be 3.59 nM.

Turning to “methyl ((5S,8S,9S,14S)-11-(2-chloro-6-fluoro-(pyridin-2-yl)benzyl)-16-fluoro-5-(1-fluoro-2-methylpropan-2-yl)-9-hydroxy-15,15-dimethyl-3,6,13-trioxo-8-(4-((6-(8-(2,2,2-trifluoroethyl)-3,8-diazabicyclo[3.2.1]octan-3-yl)pyridin-3-yl)ethynyl)benzyl)-2-oxa-4,7,11,12-tetraazahexadecan-14-yl)carbamate [Example 244]”, the concentration for a half-maximal effect (EC50) in series [1] was 19.5 nM.
